The results in this text go back to a melting point compilation (Tetko et al.; mined from patent text by program, amines drawn as free bases though some values may be those of a salt).

The melting point is the temperature, or range, at which the solid turns liquid.

The structures appear in SMILES notation.

`O=S1(=O)c2ccccc2N(c2ccccn2)c2ccccc21` had a melting point of 184 to 188 °C.
The molecule `ON=C(CCC1CCN(Cc2ccccc2)CC1)c1ccc(N2CCCC2)cc1` yielded a melting point of 153 to 158 °C.
In the case of `COC(=O)CC1CCCC2CC(=O)N(OCC(=O)C(CC(=O)O)NC(=O)OCc3ccccc3)C12` (stereo not drawn), the melting point lay in the range of 55 to 58 °C.
For `CCCCc1nc2ncncc2n1Cc1ccc2oc(-c3ccccc3-c3nnn[nH]3)c(Br)c2c1`, the melting point fell in the range of 211 to 213 °C.
As for `CC(C)Nc1nccc(C#Cc2ccc(F)cc2)n1`, the figure is 128 to 129 °C.
`ClCCN(CCCl)CCOc1ccc(Nc2c3ccccc3nc3c(OCCN(CCCl)CCCl)cccc23)cc1` displayed a melting point of 105 to 106 °C.
As for `ON=Cc1ccc(-c2ccc(O)cc2)c2ccoc12`, the figure is 219 to 220 °C; as for `CCOP(=O)(O)C(=Nc1ccc(-c2c[nH]cn2)cc1)NC(C)C`, 235 °C.
As for `CCOc1ccc(-c2cc(C(F)(F)F)n3cnc(-c4ccncc4)c3n2)cc1C(F)(F)F`, the melting point amounted to 244 °C.
`Cc1cc(F)cc([N+](=O)[O-])c1C#N` came in with a melting point of 61 to 63 °C.
As for `CSc1ccc(N2CCON(C)C2=O)cc1C(F)(F)F`, the figure is 60 °C; as for `NCc1ccc(N2CC(CN3CCC(CC(=O)O)CC3)OC2=O)cc1` (stereo not drawn), 135 °C.
With `COc1cc(OC)n2sc(=NS(=O)(=O)c3c(-c4nnn(C)n4)cnn3C)nc2n1` the figure was 182 to 183 °C.
As for `CCSCCC(=O)NNC(=O)N1Cc2ccccc2Oc2ccc(Cl)cc21`, the figure is 126 to 129 °C; as for `O=C1c2ccccc2C(=O)N1CCCOc1ccncc1`, 81 to 82 °C; as for `CCc1nc(-c2ccc(OCCC3CCN(c4ccc(C)nn4)CC3)cc2)co1`, 124 °C.
`CC(=O)COc1ccc(Oc2ccc(F)cc2)cc1` came in with a melting point of 56 to 57 °C.
With `Clc1cccc2[nH]c3c4ccccc4nc-3c(Cl)c12` the figure was 275 to 277 °C; with `O=c1cc(-c2ccccc2)oc2c(CN3CCN(CCO)CC3)c(O)c(O)c(O)c12`, 192 °C; with `Nc1c(-c2ccc(I)cc2)nc2ccc(Cl)cc2c1C(=O)O`, 243 to 245 °C.
The molecule `Cc1cc(=O)n(C2CCCCC2)n1C` gave a melting point of 99 to 100 °C.
With `COC(=O)c1ccc(C(=O)NS(=O)(=O)c2ccc(C(=O)NCCc3ccccc3)cc2)cn1` the figure was 228 to 230 °C; with `O=C(Nc1ccccc1)c1cccc(C2=NOCCS2)c1`, 149 to 150 °C; with `COC(=O)C1=C(C)NC(C)=C(C(=O)OCCCCCCN2C(=O)c3ccccc3C2=O)C1c1cccc([N+](=O)[O-])c1` (stereo not drawn), 134 to 140 °C.
As for `CC=CC1OC(=O)c2ccc(N)cc21` (stereo not drawn), the melting point lay within 125 to 130 °C.
As for `O=C1CCC(O)(c2ccc(Cl)c(Cl)c2)CN1Cc1ccc(F)cc1` (stereo not drawn), the figure is 146 °C.
As for `COc1ccc2c(c1)C(=O)c1sc(-c3ccccc3)nc1C2=O`, the figure is greater than 260 °C.
With `Cc1cc(-n2nc(C(F)(F)F)cc2-c2ccc(S(C)(=O)=O)cc2)ccc1Cl` the figure was 152 to 154 °C; with `Nc1cccc(C#Cc2ccc(OC3CN4CCC3CC4)nn2)c1` (stereo not drawn), 152 to 158 °C.
With `CCOC(=O)Nn1cccc1C(=O)c1ccccc1`, the melting point is 68 to 70 °C.
`CC(C)(C)c1cc(SCc2cccc(C#N)c2)cc(C(C)(C)C)c1O` had a melting point of 61 to 63 °C.
With `Cc1ccccc1C(CCC(=O)O)Oc1cc(OCc2ccsc2)ccc1C(=O)C=Cc1ccccn1` (racemic) the figure was 65 to 70 °C.
With `CCCCCCCCOC(=O)n1c(-c2cscn2)nc2ccccc21` the figure was 66 to 67.5 °C.
As for `Cc1ccc(OCc2nc(N)c3nccnc3n2)cc1`, the figure is 225 to 227 °C.
`O=C(O)c1ccc(-c2cc(O)c(SCCc3ccccc3)c(=O)o2)cc1` showed a melting point of 231 °C.
As for `CCOC(=O)C1CCc2c([nH]c3ccc(Cl)cc23)C1` (stereo not drawn), the melting point was in the range of 141 to 142 °C.
As for `Cc1ncnn1-c1ccc(N)cc1F`, the figure is 106 to 108 °C; as for `CCCCN(CCCC)C(=O)NCCc1ccc(-c2csc(NC(=O)OC(C)(C)C)n2)cc1`, 70 to 75 °C.
With `COc1cc(O)c2c(=O)cc(C(=O)Nc3ccc(CC4SC(=O)NC4=O)cc3)oc2c1` (stereo not drawn) the figure was 255 to 256 °C; with `CCCCC[C@H]1CC[C@H](CSc2cc(O)c3c(c2N)C(=O)c2ccccc2C3=O)CC1`, 129 to 130 °C.
For `CC(C)(C)OC(=O)NCC(NC(=O)OC(C)(C)C)C(=O)NCCNC(=O)OCc1ccccc1` (stereo not drawn), the melting point lay in the range of 152 to 154 °C.
As for `CCN1C(=O)Cc2cc(OC(=O)CCl)ccc21`, the figure is 53 to 57 °C; as for `CCCCCCCCS(=O)(=O)CCCC(=O)OO`, 113 to 115 °C.
In the case of `O=C(O)COc1nn(-c2ccccc2)cc1-c1ccccc1`, the melting point came out at 172 °C.
As for `CCCC(=O)OC1c2ccccc2C(=O)N1c1ccc2ccc(Cl)nc2n1` (stereo not drawn), the figure is 140 °C.
With `Fc1ccc(Nc2ncnc3cnc(N4CCCCCC4)nc23)cc1Cl` the figure was 87 to 90 °C; with `CC(=O)SCC(CC(C)C)C(=O)O` (stereo not drawn), 42 to 47 °C.
As for `CN1CCN(c2nccc(Oc3ccc(NC(=O)c4cc(F)cc(N5CCOCC5)c4)c4ccccc34)n2)CC1`, the melting point is 195 to 197 °C.
As for `O=C(O)C1=Cc2cc(Cl)c(Oc3ccc(Cl)cc3Br)cc2OC1C(F)(F)F` (stereo not drawn), the figure is 224 to 226 °C; as for `O=C1NC(=O)C(Nc2ccc(CCNCC(O)COc3ccc(OCc4ccccc4)cc3)cc2)S1` (stereo not drawn), 152 °C; as for `CC(C)(C)c1ccc(CNC(=O)NCc2ccc(NS(C)(=O)=O)c(Cl)c2)cc1`, 60 to 61 °C.
With `NC(=O)Cc1cc(Oc2ccc3c(ccn3C(=O)Nc3ccc(CN4CCOCC4)c(C(F)(F)F)c3)c2)ncn1` the figure was 219 to 221 °C; with `O=C(O)C(c1ccccc1)N1C(=O)c2cc(Cl)c(Cl)cc2C1=O` (stereo not drawn), 228 to 232 °C.
For `CC(=O)c1ccc(NS(=O)(=O)c2ccc3c(c2)-c2c(nc(C)[nH]c2=O)CC3)cc1`, the melting point was greater than 240 °C.
As for `NC(=O)N(O)Cc1ccc(OCc2csc(-c3ccccc3)n2)cc1`, the figure is 161 to 164 °C; as for `CN1C(=O)CCC2(C)c3ccc(CSc4ccccc4)cc3CCC12` (stereo not drawn), 144 to 146 °C; as for `O=C(O)c1cn(CC2CCC2)c2cc(Cl)ccc12`, 191 to 193 °C.
As for `Clc1ccc(Oc2cncc3sccc23)cc1`, the figure is 87 to 89 °C; as for `CC(C)c1nn(-c2ccccn2)c(-c2ccc(F)cc2)c1/C=C/CO`, 106 to 109 °C.
With `CC(=O)NC[C@H]1CN(c2ccc(C(=O)c3cnc4c([N+](=O)[O-])cccn34)cc2)C(=O)O1` the figure was 229 to 230 °C.
In turn, `Cc1c(Br)c(C)c2c(OS(=O)(=O)C(F)(F)F)coc2c1C` gave a melting point of 54 to 55 °C.
As for `CCc1c(CC(=O)O)ccc(OC)c1OC`, the figure is 89 to 90 °C; as for `CCCCCCCCCCCCCCCCNc1ccc(C(=O)NS(=O)(=O)c2ccc([N+](=O)[O-])cc2)cc1`, 130 to 131 °C.
